Results on 2 compounds are retold here after patent publication US20150025234A1, “GANGLIOSIDE COMPOSITIONS” (priority 2013, published 2015).

Entries after “also recorded” stand apart in the source; their conditions may differ.

Data set [1] concerns Parkinson's disease subjects. Conditions: cited from earlier work.
Data set [2] relates to HT22 (mouse hippocampal) cells. The note with it: J. Neurochem. 119:839-847 (2011); cited from earlier work.
For data set [3], the system named is PC12 (rat adrenal medulla tumor) cells. The note with it: FEBS Lett. 580:6972-6976 (2006); cited from earlier work.
The subject of data set [4] is human bone marrow-derived cells (HBM). In kind it is cell-based.
Data set [5] has as its system Adult Human Bone Marrow Cells. Kind of data set: CLQ treatment of adult human bone marrow cells, CTB-Alexa488 staining (Example 2). In kind it is cell-based. The note with it: 50 uM CLQ, 48 h, CTB-Alexa488, FIG. 2; listed as CLQ.

With GM1, the “safety of long-term use” value in data set [1] (five-year study, J. Neurol. Sci. 292:45-51 (2010)) is “safe”. In data set [1] (short-term treatment, Neurology 50:1630-1636 (1998)), the effect on symptoms result is “significant symptom reduction”.
`CCN(CC)CCCC(C)Nc1ccnc2cc(Cl)ccc12` (stereo not drawn) [Chloroquine, chloroquine]: in data set [2], the GM1 levels result is “only moderately increased GM1 levels”. The accumulation result in data set [3] is on record as “induce accumulation”. Moreover, in data set [4], the “up-regulation of GM1 expression vs control” value was “approximately 8 fold”. Also, the “accumulation of GM1 vs control” value in data set [5] is “significantly higher accumulation of GM1; also recorded: abundant and intense compared to control conditions”.
